{"source": "patent US8633204B2", "about": "(Pfizer Inc., priority 2006, dated 2014)", "key": {"[1]": {"test_system": "PC3 tumor model", "experiment": "Mouse xenograft efficacy study, PC3", "type": "in vivo", "experimental": "(§1) The in vivo efficacy of 2-amino-8-(trans-4-hydroxycyclohexyl)-6-(6-methoxypyridin-3-yl)-4-methylpyrido[2,3-d]pyrimidin-7(8H)-one (Compound 152) disclosed in Example 53 was examined in s.c. xenograft model. Human tumor cell lines PC3 (PTEN deletion)), U87MG (PTEN deletion) and SKOV3 (PI3Kα […]) were chosen for in vivo efficacy studies due to their different genetic background and relatively high levels of phospho AKT S473 signal. Cells were implanted in the hind flank of athymic mice and tumors grew in size to 100-200 mm^3 before daily oral treatment with Compound 152 was initiated. […] For all models tested 1 mg/kg was an efficacious dose.\n(§2) Animal Care: Female and male athymic mice (6-8 weeks old) weighing ˜22 g were obtained from Charles River Laboratory. Animal were housed on a 12 h light/dark cycle in the Pfizer vivarium and all procedures are conducted in accordance with the Pfizer Institutional Animal Care and Use Committee (IACUC). Animals are provided free access to rodent chow and water ad libitum and maintained under clean room conditions. Prior to study start animals acclimate for at least 48 h.\n(§3) Cell lines: All cell lines were cultured at 37° C. in humidified 5% CO2 incubator. U87 MG glioblastoma tumor cell line was obtained from American Type Culture Collection (ATCC) and cultured with DMEM supplemented with 15% FBS and 2 mM glutamine. PC3 prostate cancer cell line were obtained from National Cancer Institute and cultured in RPMI media supplemented with 10% FBS and 2 mM glutamine. SKOV3 ovarian cancer cells were obtained from ATCC and passaged multiple times through mice, and cultured in McCoy's 5A media supplemented with 10% FBS and 2 mM glutamine. All cell lines were tested by University of Missouri Research Animal Diagnostic Laboratory for known species of murine viruses and mycoplasma contamination.\n(§4) Mouse Xenograft Models: U87MG (glioblastoma), PC3 (prostate cancer) and SKOV3 (ovarian cancer) cell lines in culture were harvested by trypsinisation. Briefly, 2.5−4×10^6 tumor cells were suspended in the medium used to culture each cell line without serum and implanted sub-cutaneously (s.c) into the hind flank region of mice on day 0. Daily treatment with Compound 152, formulated in 10% ethanol, 40% PEG and 50% sodium citrate buffer or vehicle alone commenced 10-14 d after implantation when average tumors were 100-200 mm^3 in size. Tumors were measured twice weekly and tumor volume was calculated as a product of (length×width^2)/2. Studies were typically terminated when the tumor in the vehicle treated animals reached a size of >1500 mm3 or when judged to adversely affect the well being of the animal. […] Where applicable, percent tumor regression for each group was calculated as 100×(tumor volumeinitial−tumor volumefinal)/(tumor volumeinitial). A cohort of 12 animals was used for each dose group for efficacy studies. A representative cohort of animals were sacrificed at the times indicated, tumors resected, and a blood sample taken from the cardiac left ventricle and immediately placed in a vial primed with heparin sulfate. Typically one half of the tumor was fixed in 10% neutral buffered formalin, paraffin embedded, and sectioned for immunohistochemistry. The other half was frozen in liquid nitrogen and later processed to generate cell lysates for target modulation studies."}, "[2]": {"test_system": "U87MG tumor model", "experiment": "Mouse xenograft efficacy study, U87MG", "type": "in vivo", "conditions": "for Growth Inhibition (%): U87 MG glioma xenograft", "experimental": "as §1, §2, §3, §4"}, "[3]": {"test_system": "phosphorylation of AKT on S473 in PC3 tumors", "experiment": "In vivo target modulation study, PC3 tumors", "set-up": "species or system mouse", "experimental": "(§5) In vivo target modulation studies to determine the effect of Compound 152 treatment on the phosphorylation of AKT on S473 by ELISA and S6 on S235/S236 by IHC were performed. Resected tumors were frozen on dry ice and pulverized using the FAST PREP instrument (Qbiogene). Briefly, frozen tumors were placed in Fast Prep matrix tubes, cold lysis buffer [20 mM HEPES (pH 7.5), 150 mM NaCl, 1.0 mM sodium EDTA, 1% Triton X-100, 2.5 mM sodium pyrophosphate, 1 mM sodium orthovanadate, 1 μg/ml leupeptin, and 1 mM PMSF] was added and samples were centrifuged for 5 sec, mixed and process repeated two more times. Samples were centrifuged in a cold refrigerated Eppendorf centrifuge at 14,000 RPM for 20 min. Supernatant was collected and total and phosphoAKT (S473) protein levels determined by ELISA. The extent of phosphorylation in tumors resected from treated animals was compared with that in tumors resected from vehicle-treated animals at the same time point. Plasma samples, obtained by centrifuging individual blood samples at 3000×g for 5 min at 4° C. in an Eppendorf 5417R centrifuge, were stored at −80° C. until they could be analyzed for drug concentration. Briefly, plasma samples (50 μl) or Compound 152 standards in mouse plasma were mixed with acetonitrile […]) and injected onto a LC/MS/MS system where separation occurred on a C-18 SB phenyl (5 μM, 2.1×50 mm, Agilent) reverse-phase high-performance liquid chromatography column. The amount of inhibitor and the internal standard (0.5 μM buspirone) in each mouse plasma sample was quantified based on standard curves generated using known amounts of compound. […] Time course and dose response of in vivo target modulation and plasma inhibitor concentrations were determined post last dose at the end of the efficacy study described above and data are summarized in Table 4."}, "[4]": {"test_system": "phosphorylation of AKT on S473 in SKOV3 tumors", "experiment": "In vivo target modulation study, SKOV3 tumors", "set-up": "species or system mouse", "experimental": "as §5"}, "[5]": {"test_system": "phosphorylation of AKT on S473 in U87MG tumors", "experiment": "In vivo target modulation study, U87MG tumors", "set-up": "species or system mouse", "conditions": "for p-Akt/Akt(%): 1 h post last dose", "experimental": "as §5"}, "[6]": {"conditions": "PC3 tumor model, daily oral treatment"}, "[7]": {"conditions": "U87MG tumor model, daily oral treatment"}}, "note": "“Also recorded” adds a separate entry of the source.", "data": [{"smiles": "COc1ccc(-c2cc3c(C)nc(N)nc3n([C@H]3CC[C@H](O)CC3)c2=O)cn1", "note": "[Compound 152, 2-amino-8-(trans-4-hydroxycyclohexyl)-6-(6-methoxypyridin-3-yl)-4-methylpyrido[2,3-d]pyrimidin-7(8H)-one]", "values": [{"measurement": "Growth Inhibition (%)", "setting": "[1]; PC3 prostate xenograft, 0.25 mg/kg/day oral", "result": 45, "unit": "%"}, {"measurement": "Growth Inhibition (%)", "setting": "[1]; PC3 prostate xenograft, 0.5 mg/kg/day oral", "result": 62, "unit": "%"}, {"measurement": "Growth Inhibition (%)", "setting": "[1]; PC3 prostate xenograft, 1 mg/kg/day oral", "result": 89, "unit": "%"}, {"measurement": "Regression (%)", "setting": "[1]; PC3 prostate xenograft, 2 mg/kg/day oral", "result": 19, "unit": "%"}, {"measurement": "anti-tumor efficacy", "setting": "[1]; [6]", "result": "dose-dependent anti-tumor efficacy; also recorded: regression"}, {"measurement": "efficacious dose", "setting": "[1]; [6]", "result": 1, "unit": "mg/kg"}, {"measurement": "Growth Inhibition (%)", "setting": "[2]; 0.1 mg/kg/day oral", "result": 18, "unit": "%"}, {"measurement": "Growth Inhibition (%)", "setting": "[2]; 0.3 mg/kg/day oral", "result": 56, "unit": "%"}, {"measurement": "Growth Inhibition (%)", "setting": "[2]; 1.0 mg/kg/day oral", "result": 76, "unit": "%"}, {"measurement": "anti-tumor efficacy", "setting": "[2]; [7]", "result": "dose-dependent anti-tumor efficacy; also recorded: growth inhibition"}, {"measurement": "efficacious dose", "setting": "[2]; [7]", "result": 1, "unit": "mg/kg"}, {"measurement": "p-Akt/Akt(%)", "setting": "[3]; PC3, 0.25 mg/kg, 3 h post last dose", "result": "42 ± 14", "unit": "%"}, {"measurement": "p-Akt/Akt(%)", "setting": "[3]; PC3, 0.25 mg/kg, 7 h post last dose", "result": "82 ± 18", "unit": "%"}, {"measurement": "p-Akt/Akt(%)", "setting": "[3]; PC3, 0.25 mg/kg, 24 h post last dose", "result": "137 ± 23", "unit": "%"}, {"measurement": "p-Akt/Akt(%)", "setting": "[3]; PC3, 0.5 mg/kg, 3 h post last dose", "result": "32 ± 4", "unit": "%"}, {"measurement": "p-Akt/Akt(%)", "setting": "[3]; PC3, 0.5 mg/kg, 7 h post last dose", "result": "38 ± 5", "unit": "%"}, {"measurement": "p-Akt/Akt(%)", "setting": "[3]; PC3, 0.5 mg/kg, 24 h post last dose", "result": "107 ± 6", "unit": "%"}, {"measurement": "p-Akt/Akt(%)", "setting": "[3]; PC3, 1 mg/kg, 3 h post last dose", "result": "23 ± 10", "unit": "%"}, {"measurement": "p-Akt/Akt(%)", "setting": "[3]; PC3, 1 mg/kg, 7 h post last dose", "result": "27 ± 9", "unit": "%"}, {"measurement": "p-Akt/Akt(%)", "setting": "[3]; PC3, 1 mg/kg, 24 h post last dose", "result": "113 ± 15", "unit": "%"}, {"measurement": "p-Akt/Akt(%)", "setting": "[3]; PC3, 2 mg/kg, 3 h post last dose", "result": "21 ± 5", "unit": "%"}, {"measurement": "p-Akt/Akt(%)", "setting": "[3]; PC3, 2 mg/kg, 7 h post last dose", "result": "17 ± 7", "unit": "%"}, {"measurement": "p-Akt/Akt(%)", "setting": "[3]; PC3, 2 mg/kg, 24 h post last dose", "result": "78 ± 9", "unit": "%"}, {"measurement": "inhibition of pAKT at S473", "setting": "[3]; PC3 tumors in vivo", "result": "dose dependent inhibition"}, {"measurement": "p-Akt/Akt(%)", "setting": "[4]; SKOV3, 0.5 mg/kg, 3 h post last dose", "result": "30 ± 3", "unit": "%"}, {"measurement": "p-Akt/Akt(%)", "setting": "[4]; SKOV3, 0.5 mg/kg, 7 h post last dose", "result": "55 ± 4", "unit": "%"}, {"measurement": "p-Akt/Akt(%)", "setting": "[4]; SKOV3, 0.5 mg/kg, 24 h post last dose", "result": "147 ± 21", "unit": "%"}, {"measurement": "p-Akt/Akt(%)", "setting": "[4]; SKOV3, 1 mg/kg, 3 h post last dose", "result": "27 ± 6", "unit": "%"}, {"measurement": "p-Akt/Akt(%)", "setting": "[4]; SKOV3, 1 mg/kg, 7 h post last dose", "result": "48 ± 17", "unit": "%"}, {"measurement": "p-Akt/Akt(%)", "setting": "[4]; SKOV3, 1 mg/kg, 24 h post last dose", "result": "124 ± 10", "unit": "%"}, {"measurement": "p-Akt/Akt(%)", "setting": "[4]; SKOV3, 2 mg/kg, 3 h post last dose", "result": "23 ± 5", "unit": "%"}, {"measurement": "p-Akt/Akt(%)", "setting": "[4]; SKOV3, 2 mg/kg, 7 h post last dose", "result": "30 ± 13", "unit": "%"}, {"measurement": "p-Akt/Akt(%)", "setting": "[4]; SKOV3, 2 mg/kg, 24 h post last dose", "result": "126 ± 20", "unit": "%"}, {"measurement": "inhibition of pAKT at S473", "setting": "[4]; SKOV3 tumors in vivo", "result": "dose dependent inhibition"}, {"measurement": "EC50", "setting": "[5]; Mus musculus, U-87 MG, read-out: EC50 plasma concentration for pAKT S473 target modulation", "result": 24, "unit": "nM"}, {"measurement": "p-Akt/Akt(%)", "setting": "[5]; U87, 0.1 mg/kg", "result": 44, "unit": "%"}, {"measurement": "p-Akt/Akt(%)", "setting": "[5]; U87, 0.3 mg/kg", "result": 27, "unit": "%"}, {"measurement": "p-Akt/Akt(%)", "setting": "[5]; U87, 1 mg/kg", "result": 11, "unit": "%"}, {"measurement": "inhibition of pAKT at S473", "setting": "[5]; U87MG tumors in vivo", "result": "dose dependent inhibition"}]}]}
